Source: patent publication US12297190B2, “Modulators of STING (stimulator of interferon genes)” (PFIZER INC., priority 2019, dated 2025)
Structures can show the parent of a compound that is named as a salt.

Experiments:
STING [1] = target: T1, STING (Homo sapiens, UniProt Q86WV6, G230A/H232R/R293Q/R71H); test: Interferon-β induction: THP-1 Lucia ISG reporter cell line; format: cell-based; conditions: THP-1 Lucia ISG cells, 24 hours incubation, luciferase reporter; read-out: THP-1 Lucia ISG Cells IFN-β EC50
T1 construct: host or cells: THP-1 and THP-1 Lucia ISG cells
T1 sequence (Q86WV6 whole entry R71H/G230A/H232R/R293Q): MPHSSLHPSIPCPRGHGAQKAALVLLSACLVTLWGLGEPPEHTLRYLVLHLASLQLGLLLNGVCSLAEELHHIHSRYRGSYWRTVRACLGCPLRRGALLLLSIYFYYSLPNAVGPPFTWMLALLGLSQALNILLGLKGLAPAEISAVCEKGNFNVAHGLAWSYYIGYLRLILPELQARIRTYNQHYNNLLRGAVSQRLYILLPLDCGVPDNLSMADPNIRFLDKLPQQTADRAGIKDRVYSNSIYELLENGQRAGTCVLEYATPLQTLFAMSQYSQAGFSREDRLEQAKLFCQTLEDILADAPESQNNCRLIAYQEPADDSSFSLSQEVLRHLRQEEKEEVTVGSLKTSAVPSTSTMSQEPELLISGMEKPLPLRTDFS
Protocol: Interferon-β Induction: THP-1 ISG Reporter Cell Line
THP-1 Lucia™ ISG cells (InvivoGen) express the secreted luciferase “Lucia” reporter gene under the control of an IRF-inducible composite promotor comprised of five interferon response elements. THP-1 Lucia™ ISG cells were grown in RPMI media plus 2 mM L-glutamine, 10% fetal bovine serum, and 0.5% Pen-Strep. Hygromycin B and Zeocin were present to maintain stable transfection. 10^4 cells were seeded in 96-well plates and incubated overnight 37° C., 5% CO2. 50 μL of serial diluted compounds in media (final 0.5% DMSO) was and incubated for an additional 24 hours. After incubation, the plates were centrifuged at 2000 rpm for 10 min. 50 μl of cell culture supernatant of each well was transferred to a white, opaque 96-well plate. One pouch of QUANTI-Luc™ (InvivoGen) powder was prepared in 25 mL of endotoxin-free water and 100 μL of prepared warm QUANTI-Luc solution were added to each well containing the supernatant. The luminescence signal was measured using a Perkin-Elmer Envision microplate reader. Data were normalized to “% effect” with a positive control STING agonist that was known to maximize the luciferase signal and the negative control DMSO.

R232-STING = R232-STING (Homo sapiens, UniProt Q86WV6, H232R); test: biochemical
Chain of R232-STING (Q86WV6 155-341 H232R): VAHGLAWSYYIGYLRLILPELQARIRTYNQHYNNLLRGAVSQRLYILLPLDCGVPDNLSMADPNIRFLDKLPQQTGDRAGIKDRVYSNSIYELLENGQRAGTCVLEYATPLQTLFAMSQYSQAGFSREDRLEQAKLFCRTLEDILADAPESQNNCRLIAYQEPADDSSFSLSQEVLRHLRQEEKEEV

STING [2] = target: T1, STING; test: Phosphorylation of IRF3: THP-1 cell ELISA; format: cell-based; conditions: THP-1 cells, 3 hours incubation, phospho-IRF3 ELISA; read-out: THP-1 CELL P-IRF3 EC50
Protocol: Phosphorylation of IRF3: THP-1 Cell ELISA
STING activation results in recruitment of TBK1 and phosphorylation of IRF3 transcription factor before induction of type I interferons. THP-1 cells (InvivoGen) were grown in RPMI media plus 2 mM L-glutamine, 10% fetal bovine serum, and 0.5% Pen-Strep. 10^4 cells were seeded in 96-well plates and incubated overnight 37° C., 5% CO2. Compounds serial diluted compounds in media (final 0.5% DMSO) were added to the cells and incubated for an additional 3 hours. After incubation, the plates were centrifuged at 2000 rpm for 5 min. The cells were then lysed in 100 μl RIPA buffer and vortexed for 30 minutes at room temperature. 25 μl of lysate was then transferred to clear polystyrene High Bind plates that had been previously coated with mouse anti-human IRF-3 capture antibody (BD Pharmigen), and allowed to incubate at 4° C. for 16 hours. The plates were then washed and incubated with rabbit anti-phospho-IRF3 detection antibody (Cell Signaling Technologies) for 1.5 hours at room temperature. Finally, an HRP-linked secondary antibody (Cell Signaling Technologies) was added for 30 min before the Glo Substrate Reagent (R&D Systems) was used generate the luminescent signal. The signal was measured using a Perkin-Elmer Envision microplate reader. Data were normalized to “% effect” with a positive control STING agonist that was known to maximize the phosphorylated IRF3 signal and the negative control was DMSO.

| SMILES | EC50 (STING [1]) [nM] | Ki (R232-STING) [nM] | EC50 (STING [2]) [nM] |
| --- | --- | --- | --- |
| CCn1nc(C)c(F)c1-c1nc(-c2nc(C(N)=O)cc3c2cnn3CCN2CCC(C#N)CC2)n(C)n1 [Example J02] | 2760 | 32.4 | 3600 |
| CCn1nc(C)cc1-c1n[nH]c(-c2cc(C(N)=O)cc3c2cnn3CC)n1 [Example B01, 1-ethyl-4-[3-(1-ethyl-3-methyl-1H-pyrazol-5-yl)-1H-1,2,4-triazol-5-yl]-1H-indazole-6-carboxamide] | 23200 | 430 | 25100 |
| CCn1nc(C)cc1-c1n[nH]c(-c2cc(C(N)=O)cc3c2cnn3CCN2CCOC3(CCCC3)C2)n1 [YY28, 4-[3-(1-ethyl-3-methyl-1H-pyrazol-5-yl)-1H-1,2,4-triazol-5-yl]-1-[2-(6-oxa-9-azaspiro[4.5]decan-9-yl)ethyl]-1H-indazole-6-carboxamide] | > 33300 | 142 | > 33300 |
| CCn1nc(C)cc1-c1n[nH]c(-c2c(F)c(C(N)=O)cc3c2cnn3C)n1 [Example E01, 4-[3-(1-ethyl-3-methyl-1H-pyrazol-5-yl)-1H-1,2,4-triazol-5-yl]-5-fluoro-1-methyl-1H-indazole-6-carboxamide] | 650 | 28.7 | 640 |
| Cc1cc(-c2n[nH]c(-c3cc(C(N)=O)cc4c3cnn4C(F)F)n2)n(CCC(=O)O)n1 [YY20, 3-(5-{5-[6-carbamoyl-1-(difluoromethyl)-1H-indazol-4-yl]-1H-1,2,4-triazol-3-yl}-3-methyl-1H-pyrazol-1-yl)propanoic acid] | > 100000 | 171 | > 100000 |
| CCn1nc(C)cc1-c1nnc(-c2cc(C(N)=O)cc3c2cnn3CCC(=O)O)[nH]1 [YY03, 3-{6-carbamoyl-4-[5-(1-ethyl-3-methyl-1H-pyrazol-5-yl)-4H-1,2,4-triazol-3-yl]-1H-indazol-1-yl}propanoic acid] | > 100000 | 109 | > 100000 |
| CCn1nc(C)cc1-c1nc(-c2nc(C(N)=O)cc3c2cnn3C)c(C(C)N)s1 (single isomer, unassigned) [Example W02, 4-[5-(1-aminoethyl)-2-(1-ethyl-3-methyl-1H-pyrazol-5-yl)-1,3-thiazol-4-yl]-1-methyl-1H-pyrazolo[4,3-c]pyridine-6-carboxamide] | 2460 | 67.5 | 2320 |
| CCn1nc(C)cc1-c1n[nH]c(-c2cc(C(N)=O)cc3c(C)n[nH]c23)n1 [Example L01, 7-[3-(1-ethyl-3-methyl-1H-pyrazol-5-yl)-1H-1,2,4-triazol-5-yl]-3-methyl-1H-indazole-5-carboxamide] | 3250 | 66.2 | 3090 |
| CCn1nc(C)cc1-c1n[nH]c(-c2cc(C(N)=O)cc3c2cnn3CCN2CCNC(=O)C2)n1 [YY26, 4-[3-(1-ethyl-3-methyl-1H-pyrazol-5-yl)-1H-1,2,4-triazol-5-yl]-1-[2-(3-oxopiperazin-1-yl)ethyl]-1H-indazole-6-carboxamide] | > 33300 | 195 | > 33300 |
| CCn1cc2c(-c3nc(-c4cc(C)nn4CC)n[nH]3)cc(C(N)=O)cc2n1 [Example B02, 2-ethyl-4-[3-(1-ethyl-3-methyl-1H-pyrazol-5-yl)-1H-1,2,4-triazol-5-yl]-2H-indazole-6-carboxamide] | 6330 | 46 | 8000 |
| CCn1nc(C)cc1-c1n[nH]c(-c2cc(C(N)=O)cc3c2cnn3CCN2C3CCC2COC3)n1 [YY23, 4-[3-(1-ethyl-3-methyl-1H-pyrazol-5-yl)-1H-1,2,4-triazol-5-yl]-1-[2-(3-oxa-8-azabicyclo[3.2.1]octan-8-yl)ethyl]-1H-indazole-6-carboxamide] | > 33300 | 457 | > 33300 |
| CCn1nc(C)cc1-c1nnc(-c2cc(C(N)=O)cc3c2cnn3[C@H](C)CN2CCOCC2)[nH]1 [YY07, 4-[5-(1-ethyl-3-methyl-1H-pyrazol-5-yl)-4H-1,2,4-triazol-3-yl]-1-[(2R)-1-(morpholin-4-yl)propan-2-yl]-1H-indazole-6-carboxamide] | > 100000 | 337 | > 100000 |
| CCn1nc(C)cc1-c1nc(-c2nc(C(N)=O)cc3c2cnn3C)c(C(C)N)s1 (racemic) [Compound W-7, 1-(4-(6-carbamoyl-1-methyl-1H-pyrazolo[4,3-c]pyridin-4-yl)-2-(1-ethyl-3-methyl-1H-pyrazol-5-yl)thiazol-5-yl)ethan-1-aminium trifluoroacetate] | 1870 | 33.4 | 1500 |
| CCn1nc(C)cc1-c1nc(-c2nc(C(N)=O)cc3c2cnn3C)c(CNC)s1 [Example AA01, 4-{2-(1-ethyl-3-methyl-1H-pyrazol-5-yl)-5-[(methylamino)methyl]-1,3-thiazol-4-yl}-1-methyl-1H-pyrazolo[4,3-c]pyridine-6-carboxamide] | 13200 | 134 | 11800 |

Further lines, results first:

| EC50 (STING [1]) [nM] | Ki (R232-STING) [nM] | EC50 (STING [2]) [nM] | SMILES |
| --- | --- | --- | --- |
| > 100000 | 396 | > 100000 | Cc1nn(CCC(=O)O)c(-c2n[nH]c(-c3cc(C(N)=O)cc4c3cnn4C)n2)c1Cl [YY05, 3-{5-[5-(6-carbamoyl-1-methyl-1H-indazol-4-yl)-1H-1,2,4-triazol-3-yl]-4-chloro-3-methyl-1H-pyrazol-1-yl}propanoic acid] |
| 6250 | 184 | > 11100 | Cc1nn(CCCN)c(-c2n[nH]c(-c3nc(C(N)=O)cc4c3cnn4C)n2)c1O [Example AH01, 4-{3-[1-(3-aminopropyl)-4-hydroxy-3-methyl-1H-pyrazol-5-yl]-1H-1,2,4-triazol-5-yl}-1-methyl-1H-pyrazolo[4,3-c]pyridine-6-carboxamide] |
| > 33300 | 20.2 | > 33300 | CCn1nc(C)cc1-c1nc(-c2nc(C(N)=O)cc3c2cnn3C)n(CC(=O)O)n1 [YY29, [5-(6-carbamoyl-1-methyl-1H-pyrazolo[4,3-c]pyridin-4-yl)-3-(1-ethyl-3-methyl-1H-pyrazol-5-yl)-1H-1,2,4-triazol-1-yl]acetic acid] |
| 760 | 6.8 | 630 | CCn1nc(C)c(F)c1-c1nc(-c2nc(C(N)=O)cc3c2cnn3C)n(C)n1 [Example J03] |
| 340 | 8.3 | 240 | CCn1cc(C)c(O)c1-c1nc(-c2nc(C(N)=O)cc3c2cnn3C)cs1 [Example AG01, 4-[2-(1-ethyl-3-hydroxy-4-methyl-1H-pyrrol-2-yl)-1,3-thiazol-4-yl]-1-methyl-1H-pyrazolo[4,3-c]pyridine-6-carboxamide] |
| 2520 | 29.8 | 2820 | Cc1nn(CCCO)c(-c2nc(-c3nc(C(N)=O)cc4c3cnn4C)c(CN)o2)c1O [Example U03] |
| 1460 | 27.7 | 980 | CCn1nc(C)cc1-c1nc(-c2nc(C(N)=O)cc3c2cnn3C)c(CN)o1 [Example T01, 4-[5-(aminomethyl)-2-(1-ethyl-3-methyl-1H-pyrazol-5-yl)-1,3-oxazol-4-yl]-1-methyl-1H-pyrazolo[4,3-c]pyridine-6-carboxamide] |
| 80 | 2.2 | 80 | Cc1cc(-c2nc(-c3nc(C(N)=O)cc4c3cnn4C)n(C)n2)n(CCCO)n1 [Example AD01, 4-{3-[1-(3-hydroxypropyl)-3-methyl-1H-pyrazol-5-yl]-1-methyl-1H-1,2,4-triazol-5-yl}-1-methyl-1H-pyrazolo[4,3-c]pyridine-6-carboxamide] |
| 1180 | 30.4 | 1160 | CCn1nc(C)c(F)c1-c1c[nH]c(-c2cc(C(N)=O)cc3c2cnn3C)n1 [Example G02] |
| 8930 | 8.1 | 10900 | Cc1cc(-c2n[nH]c(-c3cc(C(N)=O)cc4c3cnn4C)n2)n(CCC(=O)O)n1 [Example C03, 3-{5-[5-(6-carbamoyl-1-methyl-1H-indazol-4-yl)-1H-1,2,4-triazol-3-yl]-3-methyl-1H-pyrazol-1-yl}propanoic acid] |
| 1850 | 34.4 | 1990 | Cc1cc(-c2nc(-c3nc(C(N)=O)cc4c3cnn4C)c(CN)o2)n(CCCO)n1 [Example U04] |
